Results published in patent US7795259B2, “Pyrrolopyrazines and pyrazolopyrazines useful as inhibitors of protein kinases” (Vertex Pharmaceuticals Incorporated, priority 2004, dated 2010).

Target: T1, full length Aurora-A (AA 1-403) (Homo sapiens, UniProt O14965)
T1 sequence (O14965 1-403): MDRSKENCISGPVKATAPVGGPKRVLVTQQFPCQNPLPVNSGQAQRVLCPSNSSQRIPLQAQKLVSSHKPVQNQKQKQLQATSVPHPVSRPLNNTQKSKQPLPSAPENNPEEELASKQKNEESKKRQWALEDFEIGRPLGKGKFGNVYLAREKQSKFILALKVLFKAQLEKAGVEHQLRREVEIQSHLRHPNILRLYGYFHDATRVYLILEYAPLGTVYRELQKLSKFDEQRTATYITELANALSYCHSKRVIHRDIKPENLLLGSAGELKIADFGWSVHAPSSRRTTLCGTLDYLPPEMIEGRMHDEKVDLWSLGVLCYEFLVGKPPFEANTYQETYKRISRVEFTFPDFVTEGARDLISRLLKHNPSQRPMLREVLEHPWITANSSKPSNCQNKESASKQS
Test: AuroraA Inhibition Assay (coupled enzyme system)
Format: biochemical
Conditions: 200 μM ATP, 800 μM peptide LRRASLG, 35 nM Aurora-A, 30° C.
Procedure: Compounds were screened for their ability to inhibit full length Aurora-A (AA 1-403) activity using a standard coupled enzyme system (Fox et al., Protein Sci., 7, pp. 2249 (1998)). Reactions were carried out in a solution containing 100 mM HEPES (pH 7.5), 10 mM MgCl2, 25 mM NaCl, 300 μM NADH, 1 mM DTT and 3% DMSO. Final substrate concentrations in the assay were 200 μM ATP (Sigma Chemicals, St Louis, Mo.) and 800 μM peptide (LRRASLG, American Peptide, Sunnyvale, Calif.). Reactions were carried out at 30° C. and 35 nM Aurora-A. Final concentrations of the components of the coupled enzyme system were 2.5 mM phosphoenolpyruvate, 200 μM NADH, 60 μg/ml pyruvate kinase and 20 μg/ml lactate dehydrogenase.
An assay stock buffer solution was prepared containing all of the reagents listed above with the exception of ATP and the test compound of interest. The assay stock buffer solution (60 μl) was incubated in a 96 well plate with 2 μl of the test compound of interest at final concentrations spanning 0.002 μM to 30 μM at 30° C. for 10 min. […] Rates of reaction were obtained using a Molecular Devices Spectramax plate reader (Sunnyvale, Calif.) over 10 min at 30° C. The Ki values were determined from the rate data as a function of inhibitor concentration using computerized nonlinear regression (Prism 3.0, Graphpad Software, San Diego, Calif.).

Compound: Clc1cnc2[nH]cc(-c3cccc(Br)c3)c2n1 [Compound I-1, 7-(3-Bromo-phenyl)-2-chloro-5H-pyrrolo[2,3-b]pyrazine]
- Ki: < 0.2 µM

Compound: C[C@H](Nc1nc(-c2c[nH]c3ncc(Cl)nc23)ncc1F)c1ccc(F)cc1 [Compound I-28]
- Ki: < 0.2 µM
